Patent US20190134153A1, “IMMUNOMODULATORY EFFECT OF INHALED KINASE INHIBITOR PEPTIDES IN LUNG” (MOERAE MATRIX, INC., priority 2017, published 2019)
Where a SMILES comes first, the peptide text is derived from it.

Experiments:
[1] = inhaled, even at high doses
in vitro = conditions: cells (cell type not stated)
[2] = LPS challenge study in healthy smokers: safety and tolerability (adverse events)
Description: Period/sequence effects were analyzed to determine potential impact of treatment order.
First multi-day dosing in humans employed a single low dose of 2.25 mg, extrapolated from animal studies (37.5 μg/kg, based on 60 kg human).
The primary study endpoints were safety and tolerability following first repeat administration and induced sputum inflammatory biomarkers interleukin-6 (IL-6), interleukin-1β (IL-1β), interleukin-8 (IL-8) and tumor necrosis factor alpha (TNFα) following inhaled LPS (30 μg) challenge, day 5.

[3] = following repeat dosing
Rat bowel anastomosis = conditions: vs placebo; cited from earlier work
CaMKIV = CaMKIV (Homo sapiens, UniProt Q16566); conditions: 1 μM; cited from earlier work
Sequence of CaMKIV (Q16566 whole entry, species assumed): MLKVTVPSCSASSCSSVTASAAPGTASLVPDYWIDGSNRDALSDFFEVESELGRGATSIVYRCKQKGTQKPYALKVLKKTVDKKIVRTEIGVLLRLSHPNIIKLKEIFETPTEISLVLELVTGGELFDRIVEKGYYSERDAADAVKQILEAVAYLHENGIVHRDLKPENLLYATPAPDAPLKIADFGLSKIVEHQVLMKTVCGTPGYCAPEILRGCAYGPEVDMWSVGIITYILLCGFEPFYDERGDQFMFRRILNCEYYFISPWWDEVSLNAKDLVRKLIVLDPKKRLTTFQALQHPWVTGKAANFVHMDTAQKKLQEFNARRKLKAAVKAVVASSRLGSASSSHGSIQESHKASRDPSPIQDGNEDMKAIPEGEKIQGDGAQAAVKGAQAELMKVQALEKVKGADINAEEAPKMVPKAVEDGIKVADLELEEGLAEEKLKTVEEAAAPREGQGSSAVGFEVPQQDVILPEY

[4] = test system: Ca2+/calmodulin-dependent protein kinase II (CaMKII); conditions: cited from earlier work
PKA = conditions: 1 μM; cited from earlier work
PKC = conditions: 1 μM; cited from earlier work

CC(C)C[C@H](NC(=O)[C@H](C)NC(=O)[C@H](CCCCN)NC(=O)[C@H](C)NC(=O)[C@H](CCCNC(=N)N)NC(=O)[C@H](C)NC(=O)[C@H](CCC(N)=O)NC(=O)[C@H](CCCNC(=N)N)NC(=O)[C@H](C)NC(=O)[C@H](C)NC(=O)[C@H](C)NC(=O)[C@H](CCCNC(=N)N)NC(=O)[C@H](C)NC(=O)[C@@H](N)Cc1ccc(O)cc1)C(=O)N[C@@H](C)C(=O)N[C@@H](CCCNC(=N)N)C(=O)N[C@@H](CCC(N)=O)C(=O)N[C@@H](CC(C)C)C(=O)NCC(=O)N[C@H](C(=O)N[C@@H](C)C(=O)N[C@@H](C)C(=O)O)C(C)C [MMI-0100] (H-YARAAARQARAKALARQLGVAA-OH)
MMI-0100 plasma concentrations [1]: little to no detectable | half-life (in vitro): ~3.21 days | Any AE leading to treatment D/C, Patients % ([2]; N = 22): (0%) | Any AE leading to treatment D/C, Patients N ([2]; N = 22): 0 | Any TEAE, Patients % ([2]; N = 22): (40.9%) | Any TEAE, Patients N ([2]; N = 22): 9 | Deaths, Patients % ([2]; N = 22): (0%) | Deaths, Patients N ([2]; N = 22): 0 | Mild TEAE, Patients % ([2]; N = 22): (27.3%) | Mild TEAE, Patients N ([2]; N = 22): 6 | Moderate TEAE, Patients % ([2]; N = 22): (18.2%) | Moderate TEAE, Patients N ([2]; N = 22): 4 | Severe or life threatening TEAE, Patients % ([2]; N = 22): (0%) | Severe or life threatening TEAE, Patients N ([2]; N = 22): 0 | Any serious treatment emergent adverse event, % of subjects ([2]; Safety Population N = 22): (0.5%) | Any serious treatment emergent adverse event, subjects ([2]; Safety Population N = 22): 0 | Concussion (serious TEAE), % of subjects ([2]; Safety Population N = 22): (0%) | Concussion (serious TEAE), subjects ([2]; Safety Population N = 22): 0 | Injury, poisoning and procedural complications (serious TEAE), % of subjects ([2]; Safety Population N = 22): (0%) | Injury, poisoning and procedural complications (serious TEAE), subjects ([2]; Safety Population N = 22): 0 | Joint dislocation (serious TEAE), % of subjects ([2]; Safety Population N = 22): (0%) | Joint dislocation (serious TEAE), subjects ([2]; Safety Population N = 22): 0 | Number of serious treatment emergent adverse events ([2]; Safety Population N = 22): 0 | safety and tolerability ([2]; first repeat administration, 2.25 mg inhaled, 5 days): safe and well-tolerated | effect on lung function (FEV1) [3]: no deleterious effect | healing (integrity of anastomosis) (Rat bowel anastomosis): healing (integrity of anastomosis) unaffected

autocamtide-2 related inhibitory peptide [AIP]
CaMKIV activity (CaMKIV): not affected | CaMKII activity ([4]; 1 μM): inhibited completely | IC50 ([4]; CaMKII): 100 nM | PKA activity (PKA): not affected | PKC activity (PKC): not affected
